According to patent publication US12458660B2, “Methods of attenuating an immune response by inhibition of BFL1” (CHILDREN'S HOSPITAL MEDICAL CENTER, priority 2018, dated 2025):
Like-named read-outs stand apart in the source and are kept apart here. One block for each compound: values may come before it.

Key:
[1] = test system: chorio-decidua neutrophils; assay: Chorio-decidua neutrophil survival in culture (Annexin V-/7aad- by flow cytometry); assay type: cell-based, Rhesus
Protocol: Importantly, Bcl2A1 was specifically expressed by CD neutrophils, and rhIL1ra decreased BCL2A1+ neutrophils (FIG. 9B). Neutrophil expression of Bcl2A1 could be constitutive or induced. Since control CAD tissue have very few neutrophils, we compared expression of Bcl2A1 and other important mediators of apoptosis in CD neutrophils vs. blood neutrophils from the same IA LPS-exposed animals.
Neutrophils were cultured overnight (16 h) at 37° C., in 5% CO2 in DMEM:F12 containing 10% fetal bovine serum, 100 IU/ml penicillin, 100 IU/ml streptomycin, and 2 mmol/L glutamine, in 24-well plate ([…] were stained with a cocktail of Abs as above for immunophenotyping and analyzed by flow cytometry within 30 minutes and cell survival was indicated as percentage of Annexin V^−/7aad^− cells (BD Bioscience).
The chosen doses were optimum based on dose response curves that were generated using blood neutrophils. ABT737 concentrations≥1 μM were toxic to the cells (not shown).

primary splenocyte cells = assay: In vitro apoptosis assay in activated primary splenocyte cells (trypan blue); assay type: cell-based, mice; conditions: WT and Bax/Bak-/- splenocytes, +/- polybrene
Protocol: An in vitro apoptosis assay utilizing primary splenocyte cells was used as a model system. In this system, compounds were added to wild-type primary splenocyte cells from mice that had been cultured and activated over four days. […] Mice deficient in Bax/Bak are unable to undergo intrinsic apoptosis due to the lack of the executioners in the pathway. […] Polybrene™ (hexadimethrine bromide) is a transfection reagent used to assist negatively-charged DNA molecules in traversal of the plasma membrane. Polybrene was included here to test whether it would improve the activity of negatively charged compounds.
Single-cell suspensions from spleen were generated by maceration through a 100 μm nylon mesh followed by LympholyteM ficoll gradient separation (Cedarlane Labs, Burlington, NC). Purified cells were then cultured on anti-CD3 coated (3 μg/mL, coated overnight, Biolegend, San Diego, CA) six-well plates in the presence of soluble anti-CD28 (2 μg/mL, Bio X Cell, West Lebanon, NH) and IL-2 (10 ng/mL, R&D Systems, Inc., Minneapolis, MN) in RPMI media (Life Technologies, Carlsbad, CA) for 24 hours at 37° C. Cells were then washed and cultured again in IL-2 (10 ng/mL) for 24 hours at 37° C. […]

[2] = biological target: T1, BCL2A1 (A1) - NOXA binding (Mus musculus, UniProt Q07440, C113S/P104K); assay: Competition fluorescence polarization assay, displacement of FITC-labeled mNOXA peptide from A1; conditions: for additivity for inhibition of A1-Noxa binding, checkerboard assay: NSC-97318 (P2) with NSC-45195 (P4), wide range of concentrations; for inhibition of NOXA binding in combination: with NSC-15508
T1 construct: A1 residues 1-152 (P104K, C113S) were expressed in the BL21 strain of Escherichia coli; hexa-His-MBP (cleaved yes); made in house; host or cells: Escherichia coli BL21
T1 sequence (Q07440 1-152 P104K/C113S): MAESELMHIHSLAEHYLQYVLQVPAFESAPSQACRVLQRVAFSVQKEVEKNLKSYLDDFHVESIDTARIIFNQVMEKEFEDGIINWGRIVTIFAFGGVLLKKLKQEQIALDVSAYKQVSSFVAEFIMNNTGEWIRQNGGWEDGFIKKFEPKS
Protocol: Representative compounds were additionally tested for inhibition of BH3 binding through competition-based fluorescence polarization (FP) assays. These assays were carried out using fluorescently labeled NOXA peptide which binds within the BH3-binding groove. The FP assay measures the tumbling rate of the labeled NOXA peptide. When NOXA is bound to A1, its rate of tumbling is low (and FP is high), whereas an effective inhibitor compound will displace NOXA, causing a fast rate of tumbling (and low FP value). Initially, a single high-dose experiment was performed with each compound using 100 μM of compound with BCL2A1 and FITC-NOXA, to observe the relative inhibition of the A1-NOXA interaction (FIG. 17B).
These compounds and any that were three standard deviations or more above the thermal shift controls in the DSF assays, along with those that were initially derived from early compounds with reasonable IC50 values, were tested in a dose-response experiment. To this end, 30 putative P2 inhibitors and 44 putative P4 inhibitors had their IC50 values determined. Of the dose responses, there was a surprising enrichment of putative P4 inhibitors among those that had IC50 values less than 50 μM. […] The following linear equation was used in the calculations (Tallarida et al., 2011),
Compounds were additionally tested for specificity of binding by displacement of FITC-labeled mouse NOXA (mNoxa; Peptide 2.0) peptide via fluorescence polarization assay (FP). FP assays were performed in two steps: single-point high-concentration compounds and dose response of fluorescence polarization hits. A1 was added at 3 μM to 100 μM of each compound in 20 mM Tris pH 7, 500 mM NaCl, 0.005% Tween-20 buffer. After addition of 375 nM labeled mNOXA, 96-well plates were incubated overnight at 20° C. in the dark to achieve equilibrium before fluorescence polarization was measured with a Biotek Synergy H2. Autofluorescent compounds and fluorescent quenching compounds were corrected via ratiometric correction as described by Shapiro et al., 2009.
Dose response curves were measured by adding 3 μM A1 to a serial two-fold dilution series of each compound ranging from 400 μM to 781 nM in 20 mM Tris pH 7, 500 mM NaCl, 0.005% Tween-20 buffer. Some compounds were further tested to assess the accuracy of these two-fold dilutions with serial 1.33-fold dilutions. A1, compounds, buffer and lastly, 375 nM FITC-labeled mNOXA were added to each well and incubated in the dark at 20° C. overnight to achieve equilibrium, followed by measurement of polarization. All dose responses were performed in triplicate.

[3] = test system: IA LPS-induced chorioamnionitis (IL-1 signaling); assay: LPS-induced chorioamnionitis Rhesus monkey model with IL-1R blockade; assay type: in vivo, Rhesus macaques (Macaca mulatta)
From the text: We utilized the LPS-induced chorioamnionitis Rhesus monkey model system to study the pathogenesis of IUI, and particularly the role of IL-1 signaling in chorioamnionitis. A human recombinant IL-1 receptor antagonist (referred to herein as “hIL-lra” or by its generic name, “anakinra”) which inhibits both IL-1β and IL-lα signaling was used to experimentally block IL-1 signaling.
(§1) All animal procedures were approved by the Institutional Animal Care and Use Committee at the University of California, Davis. Normally cycling, adult female rhesus macaques (Macaca mulatta) (n=43) were time mated. At ˜130 d of gestation (˜80% of term gestation), the pregnant rhesus received either 1 ml saline solution (n=16) or 1 mg LPS (Sigma-Aldrich, St. Louis, MO) in 1 ml saline solution by ultrasound-guided IA injection. Dams were surgically delivered 16 h (n=13) or 48 h (n=8) later. Multiparous macaques and their fetuses were similar in demographics (Table 4). After delivery, fetuses were euthanized with pentobarbital, and fetal tissues were collected. There were no spontaneous deaths or preterm labor in the animals. IL-1 signaling was blocked by recombinant human IL-1R antagonist (rhIL-1RA; Anakinra Sobi, Stockholm, Sweden) given to the pregnant monkey IA (50 mg) and subcutaneous (100 mg) 1 and 3 h before LPS, as previously described (Rueda et al., 2016; FIG. 3).
Both Rhesus and human purified decidua cell suspensions were prepared as previously described (Presicce et al., 2015). Briefly, extra-placental membranes were dissected away from the placenta. Decidua cells were scraped from the amnion-chorion. Amnion was then separated from chorion and flash-frozen for protein and RNA studies. Decidua tissue was washed, and digested with Dispase II (Life Technologies, Grand Island, NY) plus collagenase A (Roche, Indianapolis, IN) for 30 min followed by DNase I (Roche) treatment for another 30 min. Cell suspensions were filtered subjected to Red blood cell lysis and prepared for flow cytometry. Viability was >90% by trypan blue exclusion test.
Commercially available monoclonal antibodies (mAbs) were used for multiparameter flow cytometry (LSR Fortessa 2, BD Biosciences, San Diego, CA) and immunophenotyping was done on fresh chorio-decidua cell suspensions, except for T-cell phenotyping, which was done on cultured cells since cell isolation procedure down-regulates CD4/8 expression. Chorio-decidua cell TNFα expression was measured by flow cytometry with anti-TNF Ab (Cytofix/Cytoperm; BD Bioscience). To measure cytokine expression induced by in vivo exposures, flow cytometry was done on cells immediately after isolation without any stimulation and/or intracellular blockers. For all protocols, cells were treated with […] human immunoglobulin G (IgG) to block Fc receptors, stained for surface markers for 30 min at 4° C. in PBS, washed, and fixed in fixative stabilizing buffer (BD Bioscience). All antibodies were titrated for optimal detection of positive populations and mean fluorescence intensity. At least 500,000 events were recorded for each sample. Doublets were excluded based on forward scatter properties, and dead cells were excluded using LIVE/DEAD Fixable Aqua dead cell stain (Life Technologies). Unstained and negative biological population were used to determine positive staining for each marker. Data were analyzed using FlowJo version 9.5.2 software (TreeStar Inc., Ashland, OR).
Immunofluorescence was performed as previously described (Presicce et al., 2015). Briefly, paraffin embedded Rhesus fetal membrane sections were sectioned, subjected to antigen-retrieval by microwave boiling in citrate buffer followed by incubation with either anti-human CXCL8 (product G265-8; 1:25 dilution; BD Biosciences), or BCL2A1 (product b450; 1:50 dilution; LSBio, Seattle, WA), in 10% normal horse serum/0.2% Tween-20 at 4° C. overnight. […]

[4] = Anakinra (rhIL-1ra) pharmacokinetics in pregnant Rhesus macaques, human IL-1ra ELISA; assay type: in vivo, Rhesus macaques (Macaca mulatta)
Protocol: Recombinant human IL-1 receptor antagonist (“Anakinra” or “rhIL 1ra”) was injected into the amniotic fluid (“AF”) and subcutaneously in the dams (FIG. 3A). […] The low (0.2%) diffusion of Anakinra from maternal blood to amniotic fluid 2 h after maternal subcutaneous (SC) before the AF Anakinra dosing is notable. In addition, a slower clearance of Anakinra from the AF compared to maternal plasma is observed.
as §1
Cytokine/chemokine concentrations in AF, fetal, and maternal plasma were determined by Luminex using non-human primate multiplex kits (Millipore). Lipids were extracted from the AF using methanol to measure Prostaglandins PGE2 (Oxford Biomedical Research, Oxford, MI) and PGF2a (Cayman Chemical, Ann Arbor, MI) concentrations. Anakinra (rhIL1ra) levels in AF, fetal, and maternal plasma were determined by human IL1ra/IL-1F3 Quantikine ELISA kit (R&D System, Minneapolis, […]). This kit has low cross-reactivity to Rhesus IL-1ra.

Compound: CN(C)CC[C@H](CSc1ccccc1)Nc1ccc(S(=O)(=O)NC(=O)c2ccc(N3CCN(Cc4ccccc4-c4ccc(Cl)cc4)CC3)cc2)cc1[N+](=O)[O-] [ABT-737]
frequency of chorio-decidua Annexin V-/7aad- (non-apoptotic) neutrophils ([1]; 0.1 µM, cultured 16 hr): did not show any significant effect | concentrations toxic to the cells ([1]; dose response curves generated using blood neutrophils, not shown): ≥ 1000 nM

Compound: Cc1cc(/N=N/c2ccc(/N=N/c3c(O)c(S(=O)(=O)O)cc4cc(S(=O)(=O)O)ccc34)cc2C)ccc1/N=N/c1ccc2cc(S(=O)(=O)O)cc(S(=O)(=O)O)c2c1 [Compound 1.004]
increase in inhibition relative to NSC-45195 ([2]; SAR comparison): roughly a two-fold increase in inhibition | inhibition of NOXA binding in combination [2]: cooperative inhibition

Compound: rhIL1ra: human recombinant IL-1 receptor antagonist which inhibits both IL-1β and IL-1α signaling
LPS induced amniotic fluid concentration of PGE2 ([3]; ELISA of lipid extract): decreased | LPS-induced pIRAK1 in the amnion ([3]; IA LPS 16 h, immunoblot): decreased | expression of CSF3 in the amnion ([3]; IA LPS 16 h, mRNA): decreased | expression of CXCL8 in the amnion ([3]; IA LPS 16 h, mRNA): decreased | expression of IL6 in the amnion ([3]; IA LPS 16 h, mRNA): decreased | number (counts) of chorio-decidua neutrophils ([3]; IA LPS, FIG. 5B): to near controls levels | reduction of chorio-decidua neutrophil numbers ([3]; IA LPS, blocking IL-1R): ~90% | overall CD leukocyte counts ([3]; IA LPS, data not shown): decreased | CD16 expression in CD neutrophils ([3]; IA LPS, flow cytometry): to near control levels | CD63 expression in CD neutrophils ([3]; IA LPS, flow cytometry): to near control levels | chorio-decidua B-cell numbers ([3]; IA LPS, flow cytometry): to control levels | frequency of TNFα+ CD neutrophils ([3]; IA LPS, flow cytometry): reversed | neutrophil accumulation in the CD ([3]; IA LPS, flow cytometry): reversed | CAD expression of Bcl2A1 ([3]; LPS-exposed animals, quantitative PCR): reversed | BCL2A1+ neutrophils ([3]; chorio-decidua interface, cell count/HPF): decreased | IA LPS induced CD neutrophils expressing CXCL8 ([3]; immuno-histology): decreased | LPS induced amniotic fluid concentration of CXCL8 ([3]; multiplex ELISA): decreased | LPS induced amniotic fluid concentration of IL6 ([3]; multiplex ELISA): decreased | LPS induced amniotic fluid concentration of MCP1 ([3]; multiplex ELISA): decreased | diffusion from maternal blood to amniotic fluid ([4]; 2 h after maternal subcutaneous dose, before AF dosing): 0.2% | transfer to fetal plasma ([4]; 19 h level, trans-placental transfer): substantial transfer | elimination in the AF compared to maternal blood ([4]; amniotic fluid vs maternal blood): slower | concentrations in AF and maternal blood ([4]; both compartments): therapeutic concentrations

Further lines, with some results ahead:

inhibition of Noxa binding in FP assays [2]: strong inhibition | additivity for inhibition of A1-Noxa binding, checkerboard assay [2]: low level additivity
Compound: Cc1ccc(NC(=O)c2cc3ccccc3c(/N=N/c3cc(S(=O)(=O)O)ccc3O)c2O)c(C)c1 [Compound 1.001]
effect on cell survival (primary splenocyte cells): some effect

IC50 ([2]; P4 inhibitor 79711 in combination with P2 inhibitor 97318, read-out: IC50 upon P2 and P4 ligand binding): 6.3 µM | IC50 ([2]; compound alone, inhibition of A1-NOXA binding, read-out: IC50): 17.1 µM
Compound: Cc1cc(N)ccc1/N=N/c1ccc(/N=N/c2ccc3cc(S(=O)(=O)O)cc(S(=O)(=O)O)c3c2)c(C)c1 [Compound 1.002]

additivity for inhibition of A1-Noxa binding, checkerboard assay [2]: low level additivity | inhibition of NOXA binding in combination [2]: cooperative inhibition
Compound: Cc1cc(O)ccc1/N=N/c1ccc2cc(S(=O)(=O)O)cc(S(=O)(=O)O)c2c1 [Compound 1.003]
